Values of other authors, collected in patent publication US10172912B2, “Chemical induction of lactation in prepubescent non-human mammals” (priority 2009, dated 2019).

Legend:
[1] = tested on: non-pregnant mares; details: altrenogest/estradiol pessary week 1, estradiol pessary week 2 with twice daily drug
[2] = tested on: gravid horses; details: for udder development: gravid equine mares with endophyte-infected ryegrass toxicity, thirty days before foaling
[3] = tested on: plasma proteins

## CCN1CCCC1CNC(=O)c1cc(S(N)(=O)=O)ccc1OC (centres unmarked) [sulpiride]
[1]
  induced lactation volume: ~1 liter per mare/day
[2]
  udder development: increases udder development

## O=c1[nH]c2ccccc2n1CCCN1CCC(n2c(=O)[nH]c3cc(Cl)ccc32)CC1 [Domperidone]
[2]
  udder development: increases udder development
[2]; gravid horses with endophyte-infected ryegrass toxicity, administration for at least eighteen days
  lactation: increase lactation
[3]
  bound to plasma proteins: 91-93%
